# Data as given in PubChem BioAssay (NCI).
#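 These data come from cells grown in 96-well plates and exposed to compound for 48 hours at five concentrations. GI50 = concentration required for 50% inhibition of growth. TGI is the concentration that stops growth completely.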
# Columns and labels:
# Test in all cases: NCI anticancer screen, dose series, 48 h
# [1] = test system: HCT-15 colon
# [2] = test system: TK-10 renal
# [3] = test system: BT-549 breast
# [4] = test system: HOP-92 NSCLC
# [5] = test system: KM12 colon
# [6] = test system: K-562 leukemia
# [7] = test system: OVCAR-8 ovarian
# [8] = test system: SK-MEL-28 melanoma
# [9] = test system: SR leukemia
# [10] = test system: EKVX NSCLC
# [11] = test system: RPMI-8226 leukemia
# [12] = test system: COLO 205 colon
# [13] = test system: HOP-62 NSCLC
# [14] = test system: SK-OV-3 ovarian
# [15] = test system: MCF7 breast
# [16] = test system: IGROV1 ovarian
# [17] = test system: SN12C renal
# [18] = test system: DU-145 prostate
# [19] = test system: OVCAR-3 ovarian
# [20] = test system: CAKI-1 renal
# [21] = test system: MALME-3M melanoma
# [22] = test system: M14 melanoma
# [23] = test system: 786-0 renal
# [24] = test system: U251 CNS
# [25] = test system: ACHN renal
# [26] = test system: RXF 393 renal
# [27] = test system: SF-295 CNS
# [28] = test system: NCI-H460 lung
structure (smiles),measurement,setting,value
COc1cccc2cc(N(C)c3ncnc4ccccc34)ccc12,GI50,[1],< 0.01 µM
same,TGI,[1],12.8 µM
same,TGI,[2],16.9 µM
same,GI50,[3],0.0185 µM
same,TGI,[3],6.64 µM
same,GI50,[4],< 0.01 µM
same,TGI,[4],1.03 µM
same,GI50,[5],< 0.01 µM
same,TGI,[5],1.07 µM
same,GI50,[6],< 0.01 µM
same,TGI,[6],25.1 µM
same,GI50,[7],0.0172 µM
same,TGI,[7],32.6 µM
same,GI50,[8],1.35 µM
same,TGI,[8],13.8 µM
same,GI50,[9],< 0.01 µM
same,TGI,[9],24.8 µM
same,GI50,[10],0.0772 µM
same,TGI,[10],13.6 µM
same,TGI,[11],4.99 µM
same,GI50,[12],< 0.01 µM
same,TGI,[12],0.0659 µM
same,GI50,[13],< 0.01 µM
same,TGI,[13],15.4 µM
same,GI50,[14],< 0.01 µM
same,TGI,[14],18.4 µM
same,GI50,[15],< 0.01 µM
same,TGI,[15],12.3 µM
same,GI50,[16],< 0.01 µM
same,TGI,[16],12.2 µM
same,GI50,[17],< 0.0159 µM
same,TGI,[17],13.3 µM
same,GI50,[18],< 0.01 µM
same,TGI,[18],10.4 µM
same,GI50,[19],< 0.01 µM
same,TGI,[19],< 0.0107 µM
same,GI50,[20],< 0.01 µM
same,TGI,[20],12.3 µM
same,GI50,[21],< 0.0484 µM
same,TGI,[21],10.1 µM
same,GI50,[22],< 0.01 µM
same,TGI,[22],13.7 µM
same,GI50,[23],< 0.0167 µM
same,TGI,[23],5.9 µM
same,GI50,[24],< 0.01 µM
same,TGI,[24],11.6 µM
same,GI50,[25],< 0.01 µM
same,TGI,[25],7.52 µM
same,GI50,[26],< 0.01 µM
same,TGI,[26],20 µM
same,GI50,[27],< 0.01 µM
same,TGI,[27],11.4 µM
same,GI50,[28],< 0.01 µM
